Blank lines part the entries; values can stand above or below the compound they belong to. Activity calls are given as the source filed them. Rule as the data show it, for most assays here: actives have a measured EC50 and inactives only a lower limit.
Legend:
[1] = cells; assay type: functional, cell-based
[2] = test system: BJ; experiment: BJ-TERT fibroblast viability loss – cell-based, RAS-independent, luminescence, dose response (AID 1933); assay type: functional; conditions: Homo sapiens
[3] = target: T1, Serine/threonine-protein phosphatase (Candida dubliniensis (strain CD36 / CBS 7987 / NCPF 3949 / NRRLY-17841) (Yeast), UniProt B9W6M3); experiment: blockers of CaCl2-induced CDRE-lacZ signaling – S. cerevisiae, luminescence, secondary, dose response (AID 2388); assay type: functional, cell-based;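 also: yeast reporter cells carrying a calcineurin-responsive lacZ construct stimulated with calcium chloride; luminescent beta-galactosidase reporter signal in whole cells rather than isolated phosphatase activity; potency for inhibition where a drop in reporter signal means calcineurin blockade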
T1 sequence (B9W6M3 whole entry): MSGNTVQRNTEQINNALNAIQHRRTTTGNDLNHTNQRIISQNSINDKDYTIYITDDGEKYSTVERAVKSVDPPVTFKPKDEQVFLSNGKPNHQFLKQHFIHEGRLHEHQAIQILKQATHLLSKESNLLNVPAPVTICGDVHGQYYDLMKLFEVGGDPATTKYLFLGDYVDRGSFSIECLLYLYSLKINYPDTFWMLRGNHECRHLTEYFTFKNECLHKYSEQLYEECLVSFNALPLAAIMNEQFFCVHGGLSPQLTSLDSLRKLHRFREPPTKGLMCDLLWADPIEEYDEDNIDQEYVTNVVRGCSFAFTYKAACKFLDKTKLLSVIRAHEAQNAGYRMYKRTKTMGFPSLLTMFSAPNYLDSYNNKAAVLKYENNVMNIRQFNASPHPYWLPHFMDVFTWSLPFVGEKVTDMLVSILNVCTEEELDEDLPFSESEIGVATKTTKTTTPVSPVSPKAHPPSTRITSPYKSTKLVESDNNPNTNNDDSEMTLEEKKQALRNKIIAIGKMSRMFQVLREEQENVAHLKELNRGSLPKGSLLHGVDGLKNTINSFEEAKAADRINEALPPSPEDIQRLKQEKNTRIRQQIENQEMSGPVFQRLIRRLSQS

[4] = alpha-synuclein stem-loop translation blockers – luminescence, H4 neuroglioblastoma cells, dose confirmation, confirmation (AID 2454); assay type: functional, cell-based;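 also: H4 neuroglioblastoma cells carrying an alpha-synuclein 5'UTR luciferase reporter; potency for inhibition of the luciferase signal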
[5] = target: T2, Hexokinase HKDC1 (Homo sapiens, UniProt Q2TB90); experiment: activation of HKDC1 glucose phosphorylation – biochemical, W721R variant, dose response (AID 504730); assay type: functional
T2 sequence (Q2TB90 whole entry): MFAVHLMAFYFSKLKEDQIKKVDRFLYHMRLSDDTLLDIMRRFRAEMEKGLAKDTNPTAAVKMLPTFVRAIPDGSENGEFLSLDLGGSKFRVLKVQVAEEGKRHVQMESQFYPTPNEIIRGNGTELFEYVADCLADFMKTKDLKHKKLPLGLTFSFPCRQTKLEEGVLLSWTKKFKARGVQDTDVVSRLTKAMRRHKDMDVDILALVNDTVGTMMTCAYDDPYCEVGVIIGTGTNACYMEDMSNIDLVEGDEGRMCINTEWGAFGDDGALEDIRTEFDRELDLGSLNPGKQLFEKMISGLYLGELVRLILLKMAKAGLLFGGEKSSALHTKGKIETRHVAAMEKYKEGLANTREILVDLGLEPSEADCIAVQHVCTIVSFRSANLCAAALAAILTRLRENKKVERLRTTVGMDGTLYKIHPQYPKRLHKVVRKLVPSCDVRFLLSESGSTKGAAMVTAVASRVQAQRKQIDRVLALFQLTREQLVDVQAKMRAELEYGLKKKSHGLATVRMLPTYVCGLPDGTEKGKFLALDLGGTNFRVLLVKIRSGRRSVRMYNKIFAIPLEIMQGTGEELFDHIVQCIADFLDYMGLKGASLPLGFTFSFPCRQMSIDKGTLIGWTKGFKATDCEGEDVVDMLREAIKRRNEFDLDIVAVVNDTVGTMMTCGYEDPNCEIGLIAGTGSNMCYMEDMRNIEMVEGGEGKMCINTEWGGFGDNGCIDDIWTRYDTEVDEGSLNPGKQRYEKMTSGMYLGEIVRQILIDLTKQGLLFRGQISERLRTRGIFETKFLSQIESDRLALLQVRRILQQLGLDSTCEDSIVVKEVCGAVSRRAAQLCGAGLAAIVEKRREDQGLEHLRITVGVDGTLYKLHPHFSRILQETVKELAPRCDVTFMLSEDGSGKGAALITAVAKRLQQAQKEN

[6] = test system: HEK293; experiment: optical interference in Abeta FP readout, dose response, artefact control for IDE activator project, biochemical, fluorescence polarization (AID 588442); assay type: functional, cell-based; conditions: Homo sapiens
[7] = target: T3, Zinc finger protein mex-5 (Caenorhabditis elegans, UniProt Q9XUB2); experiment: potency of MEX-5 RNA-binding blockers – biochemical, C. elegans, fluorescence polarization, dose response (AID 1960)
T3 sequence (Q9XUB2 whole entry): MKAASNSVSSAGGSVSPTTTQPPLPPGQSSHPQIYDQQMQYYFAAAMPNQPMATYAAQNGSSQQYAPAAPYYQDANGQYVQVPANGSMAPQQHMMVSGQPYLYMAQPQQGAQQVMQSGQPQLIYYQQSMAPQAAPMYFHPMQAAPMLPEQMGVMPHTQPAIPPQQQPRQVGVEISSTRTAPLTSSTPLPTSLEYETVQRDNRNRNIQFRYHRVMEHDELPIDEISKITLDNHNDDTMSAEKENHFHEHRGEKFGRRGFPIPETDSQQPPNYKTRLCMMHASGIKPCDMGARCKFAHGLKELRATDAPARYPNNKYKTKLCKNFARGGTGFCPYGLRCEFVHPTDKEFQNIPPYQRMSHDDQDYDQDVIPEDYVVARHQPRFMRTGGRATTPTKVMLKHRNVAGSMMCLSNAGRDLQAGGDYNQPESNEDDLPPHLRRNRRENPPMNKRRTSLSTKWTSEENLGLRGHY

[8] = target: Tyrosine-protein kinase SYK (Homo sapiens, UniProt P43405); assay type: functional

Structure (SMILES): O=C(N/N=C/c1c(O)ccc2ccccc12)c1[nH]ncc1Br
EC50 [1]: 10.7 µM (active)
EC50 [2]: 24.6 µM (active)

Structure (SMILES): CCN1C(=Cc2sc3ccccc3[n+]2C)C=Cc2cccc(C)c21
EC50 [3]: > 180 µM (inactive)
EC50 [4]: > 12 µM (not active)
EC50 [5]: > 80 µM (inactive)

Structure (SMILES): CNC[C@H](Cc1ccccc1)NC[C@@H](Cc1cccc2ccccc12)NCCc1ccc(C)cc1
EC50 [6]: > 54.7 µM (inactive)

EC50 [7]: 59.3 µM (active)
Structure (SMILES): Nc1nnc2c(n1)CCCC2

Ki [8]: > 1.58 µM (inactive)
Structure (SMILES): O=C(Nc1cc(-c2c[nH]c3ncccc23)cc(Cl)n1)c1ccccc1
